Results from PubChem BioAssay AID1963442 (Molecular Pharmacology Branch, DTP, NCI, 2024).
“And” between values parts separate entries of the source, which are not always exact repeats. Identical values can stand only once.

Tested on: MPNST complex spheroid with HUVEC/MSC, growth, % test/control
Assay: Anticancer human tumor MPNST cell line growth inhibition [Asc];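 further: compounds left on spheroids for seven days before reading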
Settings: for viability, T/C: stronger effect = lower value
Outline: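 Concentration series start at each agent's clinical Cmax, or at 10 microM when none is established, and drop in half-log steps; agents are applied alone or together to complex spheroids built with HUVEC and hMSC.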

[1] = curve of first compound, second compound 0.00316 µM
[2] = curve of first compound, second compound 0.01 µM
[3] = curve of first compound, second compound 0.0316 µM
[4] = curve of first compound, second compound 0.1 µM
[5] = curve of first compound, second compound 0.316 µM
[6] = curve of first compound, second compound 1 µM
[7] = second compound 0.00316 µM, first compound 0.00316 µM
[8] = second compound 0.00316 µM, first compound 0.01 µM
[9] = second compound 0.00316 µM, first compound 0.0316 µM
[10] = second compound 0.00316 µM, first compound 0.1 µM
[11] = second compound 0.01 µM, first compound 0.00316 µM
[12] = second compound 0.01 µM, first compound 0.01 µM
[13] = second compound 0.01 µM, first compound 0.0316 µM
[14] = second compound 0.01 µM, first compound 0.1 µM
[15] = second compound 0.0316 µM, first compound 0.00316 µM
[16] = second compound 0.0316 µM, first compound 0.01 µM
[17] = second compound 0.0316 µM, first compound 0.0316 µM
[18] = second compound 0.0316 µM, first compound 0.1 µM
[19] = second compound 0.1 µM, first compound 0.00316 µM
[20] = second compound 0.1 µM, first compound 0.01 µM
[21] = second compound 0.1 µM, first compound 0.0316 µM
[22] = second compound 0.1 µM, first compound 0.1 µM
[23] = second compound 0.1 µM, first compound 0.316 µM
[24] = second compound 0.1 µM, first compound 1 µM
[25] = second compound 0.316 µM, first compound 0.00316 µM
[26] = second compound 0.316 µM, first compound 0.01 µM
[27] = second compound 0.316 µM, first compound 0.0316 µM
[28] = second compound 0.316 µM, first compound 0.1 µM
[29] = second compound 0.316 µM, first compound 0.316 µM
[30] = second compound 0.316 µM, first compound 1 µM
[31] = second compound 1 µM, first compound 0.00316 µM
[32] = second compound 1 µM, first compound 0.01 µM
[33] = second compound 1 µM, first compound 0.0316 µM
[34] = second compound 1 µM, first compound 0.1 µM
[35] = second compound 1 µM, first compound 0.316 µM
[36] = second compound 1 µM, first compound 1 µM

SMILES: O=C(c1ccc(F)c(F)c1Nc1ccc(I)cc1F)N1CC(O)([C@@H]2CCCCN2)C1 + CNC(C)C(=O)NC1CN(S(=O)(=O)c2cccc(S(=O)(=O)N3CCC4CCC(C(=O)NC(c5ccccc5)c5ccccc5)N4C(=O)C(NC(=O)C(C)NC)C3)c2)CCC2CCC(C(=O)NC(c3ccccc3)c3ccccc3)N2C1=O
- IC50 [1]: 472 nM
- IC50 [2]: 781 nM
- IC50 [3]: 858 nM
- IC50 [4]: 922 nM
- IC50 [5]: 868 nM
- IC50 [6]: 892 nM
- viability, T/C [7]: 71%
- viability, T/C [8]: 46.5%
- viability, T/C [9]: 82.4%
- viability, T/C [10]: 65.1%
- viability, T/C (second compound 0.00316 µM, first compound 0.316 µM): 66.1%
- viability, T/C (second compound 0.00316 µM, first compound 1 µM): 19.9%
- viability, T/C [11]: 107%
- viability, T/C [12]: 103%
- viability, T/C [13]: 131%
- viability, T/C [14]: 134%
- viability, T/C (second compound 0.01 µM, first compound 0.316 µM): 108%
- viability, T/C (second compound 0.01 µM, first compound 1 µM): 34.2%
- viability, T/C [15]: 108%
- viability, T/C [16]: 88.7%
- viability, T/C [17]: 110%
- viability, T/C [18]: 126%
- viability, T/C (second compound 0.0316 µM, first compound 0.316 µM): 77.6%
- viability, T/C (second compound 0.0316 µM, first compound 1 µM): 45.8%
- viability, T/C [19]: 86.9%
- viability, T/C [20]: 89.1%
- viability, T/C [21]: 81.6%
- viability, T/C [22]: 90.5%
- viability, T/C [23]: 97.2%
- viability, T/C [24]: 47%
- viability, T/C [25]: 69.7%
- viability, T/C [26]: 67.3%
- viability, T/C [27]: 65.5%
- viability, T/C [28]: 134%
- viability, T/C [29]: 87.7%
- viability, T/C [30]: 45%
- viability, T/C [31]: 70.1%
- viability, T/C [32]: 80.1%
- viability, T/C [33]: 105%
- viability, T/C [34]: 113%
- viability, T/C [35]: 96%
- viability, T/C [36]: 45.2%

SMILES: Cn1ncnc1[C@H]1c2n[nH]c(=O)c3cc(F)cc(c23)N[C@@H]1c1ccc(F)cc1 + CNC(C)C(=O)NC1CN(S(=O)(=O)c2cccc(S(=O)(=O)N3CCC4CCC(C(=O)NC(c5ccccc5)c5ccccc5)N4C(=O)C(NC(=O)C(C)NC)C3)c2)CCC2CCC(C(=O)NC(c3ccccc3)c3ccccc3)N2C1=O
- IC50 [1]: < 0.316 nM
- IC50 [2]: 1.09 nM
- IC50 [3]: 23.2 nM
- IC50 [4]: 82.1 nM
- IC50 [5]: 26.7 nM
- IC50 [6]: 96.7 nM
- viability, T/C (second compound 0.00316 µM, first compound 0.000316 µM): 12.2%
- viability, T/C (second compound 0.00316 µM, first compound 0.001 µM): 11.4%
- viability, T/C [7]: 10.4%
- viability, T/C [8]: 11.5%
- viability, T/C [9]: 11.3%
- viability, T/C [10]: 10.7%
- viability, T/C (second compound 0.01 µM, first compound 0.000316 µM): 58.8%
- viability, T/C (second compound 0.01 µM, first compound 0.001 µM): 46.2%
- viability, T/C [11]: 50.8%
- viability, T/C [12]: 37.4%
- viability, T/C [13]: 32.5%
- viability, T/C [14]: 34.8%
- viability, T/C (second compound 0.0316 µM, first compound 0.000316 µM): 77.7%
- viability, T/C (second compound 0.0316 µM, first compound 0.001 µM): 73.9%
- viability, T/C [15]: 73.6%
- viability, T/C [16]: 65.4%
- viability, T/C [17]: 43.5%
- viability, T/C [18]: 45.2%
- viability, T/C (second compound 0.1 µM, first compound 0.000316 µM): 90.3%
- viability, T/C (second compound 0.1 µM, first compound 0.001 µM): 64.1%
- viability, T/C [19]: 70.6%
- viability, T/C [20]: 74.7%
- viability, T/C [21]: 61.1%
- viability, T/C [22]: 46.4%
- viability, T/C (second compound 0.316 µM, first compound 0.000316 µM): 76.2%
- viability, T/C (second compound 0.316 µM, first compound 0.001 µM): 62.5%
- viability, T/C [25]: 88.4%
- viability, T/C [26]: 57.5%
- viability, T/C [27]: 51.3%
- viability, T/C [28]: 46.1%
- viability, T/C (second compound 1 µM, first compound 0.000316 µM): 51.3%
- viability, T/C (second compound 1 µM, first compound 0.001 µM): 68.3%
- viability, T/C [31]: 49.5%
- viability, T/C [32]: 73.9%
- viability, T/C [33]: 53.9%
- viability, T/C [34]: 50.1%

SMILES: C#Cc1c(F)ccc2cc(O)cc(-c3ncc4c(N5CC6CCC(C5)N6)nc(OCC56CCCN5CC(F)C6)nc4c3F)c12 (stereo unspecified)
- viability, T/C (compound 0.0316 µM): 76.6% and 93.8% and 88.8%
- viability, T/C (compound 0.1 µM): 87% and 113% and 69.2%
- viability, T/C (compound 0.316 µM): 74.9% and 107% and 83.5%
- viability, T/C (compound 1 µM): 61.2% and 94.7% and 70.7%
- viability, T/C (compound 3.16 µM): 88% and 93.3% and 87.2%
- viability, T/C (compound 10 µM): 50% and 97.8% and 110%
- IC50 (curve of compound): > 10000 nM

SMILES: C=CC(=O)N1CCN(c2nc(=O)n(-c3c(C)ccnc3C(C)C)c3nc(-c4c(O)cccc4F)c(F)cc23)C(C)C1 (stereo unspecified) + Cc1c(S(C)(=O)=O)c(-c2cc(F)cc(N3CCN(c4ccc(NS(=O)(=O)c5ccc(NC(CCN6CCC(C(=O)OCCCP(=O)(O)O)CC6)CSc6ccccc6)c(S(=O)(=O)C(F)(F)F)c5)cc4)CC3)c2)c(-c2ccc(Cl)cc2)n1C(C)C
- IC50 [4]: > 10000 nM
- IC50 [5]: > 10000 nM
- IC50 [6]: > 10000 nM
- IC50 (curve of first compound, second compound 3.16 µM): > 10000 nM
- IC50 (curve of first compound, second compound 10 µM): > 10000 nM
- viability, T/C [21]: 71.9%
- viability, T/C [22]: 74.7%
- viability, T/C [23]: 84.2%
- viability, T/C [24]: 96.2%
- viability, T/C (second compound 0.1 µM, first compound 3.16 µM): 93.4%
- viability, T/C (second compound 0.1 µM, first compound 10 µM): 105%
- viability, T/C [27]: 79.4%
- viability, T/C [28]: 93.8%
- viability, T/C [29]: 76.7%
- viability, T/C [30]: 88.9%
- viability, T/C (second compound 0.316 µM, first compound 3.16 µM): 85.7%
- viability, T/C (second compound 0.316 µM, first compound 10 µM): 108%
- viability, T/C [33]: 90.8%
- viability, T/C [34]: 85.1%
- viability, T/C [35]: 89.8%
- viability, T/C [36]: 89.9%
- viability, T/C (second compound 1 µM, first compound 3.16 µM): 101%
- viability, T/C (second compound 1 µM, first compound 10 µM): 118%
- viability, T/C (second compound 3.16 µM, first compound 0.0316 µM): 66.5%
- viability, T/C (second compound 3.16 µM, first compound 0.1 µM): 88%
- viability, T/C (second compound 3.16 µM, first compound 0.316 µM): 84.6%
- viability, T/C (second compound 3.16 µM, first compound 1 µM): 99%
- viability, T/C (second compound 3.16 µM, first compound 3.16 µM): 100%
- viability, T/C (second compound 3.16 µM, first compound 10 µM): 99%
- viability, T/C (second compound 10 µM, first compound 0.0316 µM): 83.5%
- viability, T/C (second compound 10 µM, first compound 0.1 µM): 91.2%
- viability, T/C (second compound 10 µM, first compound 0.316 µM): 83.8%
- viability, T/C (second compound 10 µM, first compound 1 µM): 97.1%
- viability, T/C (second compound 10 µM, first compound 3.16 µM): 115%
- viability, T/C (second compound 10 µM, first compound 10 µM): 115%
